{
  "source": "patent US7718781B2",
  "about": "“Hydroxypyridonate and hydroxypyrimidinone chelating agents” (The Regents of the University of California, priority 2001, dated 2010)",
  "key": {"[1]": {"conditions": "cited from earlier work"}, "rat hepatocytes": {"test_system": "rat hepatocytes", "conditions": "cited from earlier work"}, "[2]": {"conditions": "free complex in water, in vitro; cited from earlier work"}, "[3]": {"target": "human serum albumin (HSA) (Homo sapiens, UniProt P02768)", "sequence (P02768 25-609)": "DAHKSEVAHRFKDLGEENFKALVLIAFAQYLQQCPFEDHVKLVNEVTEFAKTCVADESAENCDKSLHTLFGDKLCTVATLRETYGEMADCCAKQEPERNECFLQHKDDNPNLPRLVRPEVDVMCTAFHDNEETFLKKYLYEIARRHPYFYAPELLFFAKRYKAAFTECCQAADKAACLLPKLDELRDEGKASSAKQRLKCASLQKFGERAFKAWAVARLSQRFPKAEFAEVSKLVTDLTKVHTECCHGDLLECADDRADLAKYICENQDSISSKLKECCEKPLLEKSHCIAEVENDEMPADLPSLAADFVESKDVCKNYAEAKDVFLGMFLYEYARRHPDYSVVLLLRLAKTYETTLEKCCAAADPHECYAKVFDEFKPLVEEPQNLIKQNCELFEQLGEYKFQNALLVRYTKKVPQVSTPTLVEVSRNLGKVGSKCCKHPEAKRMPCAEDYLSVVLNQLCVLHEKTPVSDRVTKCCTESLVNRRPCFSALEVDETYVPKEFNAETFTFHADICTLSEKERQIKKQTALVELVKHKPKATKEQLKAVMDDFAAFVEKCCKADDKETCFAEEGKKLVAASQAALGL", "conditions": "cited from earlier work"}, "[4]": {"assay": "Ligand protonation constants (potentiometric titration)", "type": "physicochemical", "procedure": "The protonation constants for chelates of the invention are readily determined by potentiometric titrations. These constants are defined by eq 2:\nAs previously reported, (Turowski et al., Inorg. Chem., 27:474 (1988)) potentiometric titrations were performed using an automated apparatus consisting of a Accumet pH meter (models 925, 825MP or 15), a pH electrode (Orion Ross semi-micro combination, Cole Parmer semi-micro combination or Corning high performance combination electrodes), an autoburet (Metrohm 665 Dosimat or 702 SM Titrino) fitted with a 5 mL piston exchange unit and a jacketed Ar swept titration cell maintained at 25.0° C. by a Lauda K-2/R or Neslab RTE-111 constant temperature circulating bath. The electronic systems were integrated for automated collection with an IBM PC clone.\nIn this study, ligand and metal complex solutions were titrated from low to high pH and back again if possible. Titrations for the Zn/HOPY systems were not reversible, presumably due to the formation of mixed ML hydroxide complexes. […] Formation constants calculated from the potentiometric titration data were determined with the aid of a FORTRAN non-linear least-squares refinement program (BETA 90). […] Although this is a low concentration for potentiometric titrations, the buffer regions corresponding to the protonation steps are around neutral pH, and so could still be determined."}, "[5]": {"conditions": "literature; cited from earlier work"}, "mice": {"test_system": "mice", "conditions": "cited from earlier work"}, "[6]": {"assay": "Gd(III) formation constants / pGd (spectrophotometric titration)", "type": "physicochemical", "procedure": "The term, “pGd,” as used herein is −log10[Gd^III]free at pH=7.4, and pre-equilibrium concentrations of [L]=10 μM, [Gd^III]=1 μM.\nThe Bjerrum method can be used for metal complex stability measurements (pH titrations of ligand and metal+ligand). Competition titrations with DTPA can be performed to determine the stability of very stable complexes where direct pH titration methods are inappropriate. Spectrophotometric techniques can be used to monitor metal-ligand complexation reactions, which give rise to changes in the Vis/UV spectra relative to the parent metal and ligand species. With digitally-recording automated spectrophotometeric titrators, factor analysis of the Vis/UV spectra readily determined the species in solution, their individual spectra and the equilibrium constants which interrelate them.\nData for the spectrophotometric determination of formation constants for the compounds of the invention (e.g., Tren-Me2-5,4-HOPY) with gadolinium are generally collected over a pH range of 2-8.\nThe formation constants are defined by eq 3:\nThe spectrophotometric data is refined using a model. […]\nThe pGd values are defined by eq 4: pGd=−log[Gd]free at pH 7.4 for [Gd]=1 μM, [L]=10 μM (4) A pM value can be calculated for many conditions, but it is generally preferable to calculate it for conditions relevant to biological considerations. […]"}, "[7]": {"assay": "Water proton relaxivity (longitudinal relaxation rate, 20 MHz)", "type": "physicochemical", "conditions": "37° C.", "procedure": "The efficacy of a paramagnetic complex as a possible MRI contrast agent depends on its ability to catalyze the nuclear magnetic relaxation rate of solvent protons (Lauffer, R. B., Chem. Rev., 87, 901 (1987); Tweedle, M. F.; Kumar, K. In Magnetic Resonance Imaging (MRI) Contrast Agents; Clarke, M. I., Sadler, P. J., Eds.; Springer: Berlin, Germany, Vol. 2, p. 1 (1999); Koenig et al., Prog. NMR Spectrosc., 22:487 (1990)). This property, which is measured in terms in relaxivity, r1p, is defined as the enhancement of the water proton longitudinal relaxation rate induced by a 1 mML^−1 solution of the paramagnetic compound at a given temperature and magnetic field strength (Aime et al., Chem. Soc. Rev., 27:19 (1998)).\nIn an exemplary assay, the longitudinal water proton relaxation rate at 20 MHz are measured (typically with a NMR spectrometer operating at 0.5 T) with a reproducibility of the T1 data to ±0.5%. Equipment for the control of temperature (with an accuracy of ±0.1° C.) during these measurements are employed.\nWater proton relaxation measurements were carried out at 20 MHz with a Stelar Spinmaster Spectrometer (Mede, Pv, Italy) on 0.5-2 mM solutions of the Gd(III) complex. Spin-lattice relaxation times T1 were measured by the standard inversion recovery method with typical 90° pulse width of […], 16 experiments of 4 scans. The reproducibility of the data is ±1%. The temperature was controlled by a Stelar VTC-91 air-flow heater equipped with copper-constantan thermocouple (uncertainty ±0.1° C). The 1/T1 nuclear magnetic relaxation dispersion (NMRD) profiles of water protons were measured from 0.00024 to 1.2 T (corresponding to the range 0.01-50 MHz of proton Larmor frequencies) at 15, 25 and 39° C. using 1.5 mM solutions of the complex on the field-cycling Koenig-Brown relaxometer of the University of Torino (Italy). The temperature was controlled by circulating freon from an external bath and measured by a thermometer inserted into the freon close to the sample. The reproducibilities of the measured T1 values were estimated to be ±2%. […]"}, "[8]": {"conditions": "literature reports; cited from earlier work"}, "[9]": {"assay": "Experimental determination of water solubility (UV-Vis of saturated solution)", "type": "physicochemical", "procedure": "To attain neutral pH, a 0.01 M solution of buffer (HEPES, pKa 7.55) in 0.1 M KCl was made in its acidic form and neutralized to pH 7 with KOH. A dilute solution (of the metal complex) of known concentration was prepared and the UV-Vis spectrum acquired. The extinction coefficient (ε) at the maximum absorbance (at wavelength typically 320-360 nm) was then calculated using Beer-Lambert's law. A saturated solution of the metal complex was then prepared and the UV-Vis spectrum acquired and the maximum absorbance (at wavelength typically 320-360 nm) recorded. In cases where the saturated solution produced extremely high absorbances, the saturated solution was diluted and then the spectrum recorded. Using the known ε, the concentration of the saturated solution was then determined. […] The spectra of the complexes at pH 7 are consistent with the known ML spectra observed from spectrophotometric solution thermodynamics studies of the metal-ligand complexation reactions and indicate the absence of free ligand (note: M=metal, L=ligand).\nTypically, preliminary investigation of the minimum solubility of the complexes involves dissolving a known quantity of the complex in a precise volume of solvent. The visible disappearance of particulate matter, over time or instantaneous in some cases, is indicative of complete dissolution of the complex."}},
  "data": [
    {"smiles": "O=C([O-])CN(CCN(CC(=O)[O-])CC(=O)[O-])CCN(CC(=O)[O-])C(COCc1ccccc1)C(=O)[O-].[Gd+3]", "note": "(centres unmarked) [Gd-BOPTA]", "values": [
      {"measurement": "relaxivity in rat plasma", "setting": "[1]", "value": 6.9, "unit": "mM⁻¹ s⁻¹"},
      {"measurement": "relaxivity in rat hepatocytes", "setting": "rat hepatocytes", "value": 30, "unit": "mM⁻¹ s⁻¹"},
      {"measurement": "relaxivity in water", "setting": "[2]", "value": 4.4, "unit": "mM⁻¹ s⁻¹"}
    ]},
    {"smiles": "O=C([O-])CN(CCN(CC(=O)[O-])C[C@H](COP(=O)([O-])OC1CCC(c2ccccc2)(c2ccccc2)CC1)N(CC(=O)[O-])CC(=O)[O-])CC(=O)[O-].[Gd+3].[H+].[H+].[H+]", "note": "[MS-325]", "values": [
      {"measurement": "relaxivity of the HSA adduct", "setting": "[3]", "value": 42.0, "unit": "mM⁻¹ s⁻¹"},
      {"measurement": "relaxivity in water", "setting": "[2]", "value": 6.6, "unit": "mM⁻¹ s⁻¹"}
    ]},
    {"smiles": "Cn1ccc(C(=O)NCCN(CCNC(=O)c2ccn(C)c(=O)c2O)CCNC(=O)c2ccn(C)c(=O)c2O)c(O)c1=O", "note": "[TREN-1-Me-HOPO, tris[(3-hydroxy-1-methyl-2-oxo-1,2-didehydropyridine-4-carboxamido)ethyl]amine]", "values": [
      {"measurement": "pKa", "setting": "[4]", "value": 6.12},
      {"measurement": "number of coordinated water molecules (q)", "setting": "[5]", "value": 2},
      {"measurement": "toxicity to mice", "setting": "mice", "value": "low toxicity"},
      {"measurement": "pGd", "setting": "[6]; pH 7.4, [Gd]=1 μM, [L]=10 μM", "value": 20.3},
      {"measurement": "relaxivity (r1)", "setting": "[7]", "value": 10.5, "unit": "mM⁻¹ s⁻¹"},
      {"measurement": "relaxivity relative to [Gd(DTPA)(H2O)]", "setting": "[7]", "value": "~2.5", "unit": "times"}
    ]},
    {"smiles": "Cn1ccc(C(=O)NCCN(CCNC(=O)c2ccn(C)c(=O)c2O)CCNC(=O)c2ccn(C)c(=O)c2O)c(O)c1=O", "note": "[Formula 7, tris[(3-hydroxy-1-methyl-2-oxo-1,2-didehydropyridine-4-carboxamido)ethyl]amine]", "values": [
      {"measurement": "solubility in water of the Gd(III) complex", "setting": "[8]", "value": "about 0.1 mM"},
      {"measurement": "Water Solubility (pH 7, 25° C.)", "setting": "[9]", "value": 0.1, "unit": "mM"},
      {"measurement": "pH range over which speciation in water is unchanged", "setting": "[6]; calculated for 1 μM Gd and 10 μM ligand (FIG. 5)", "value": "5.5-10"}
    ]}
  ]
}
